Measurements published in US20250101436A1, “APTAMERS AND SMALL MOLECULE LIGANDS” (MeiraGTx UK II Limited, priority 2021, published 2025).

Tested on: N5-12G6 riboswitch
Assay: Firefly luciferase assay, N5-12G6 riboswitch in HEK293 cells
Conditions: for fold induction at 2 µM / fold induction at 25 µM: Homo sapiens; for fold induction at 2 µM: HEK293, read-out: Fold induction 2 μM (HEK), 12G6 riboswitch, luciferase, HEK293, 2 μM; for regulation of luciferase expression (FIG. 4e): 12G6 riboswitch, HEK293; for fold induction at 25 µM: HEK293, read-out: Fold induction 25 μM (HEK), 12G6 riboswitch, luciferase, HEK293, 25 μM

| Compound | fold induction at 2 µM | regulation of luciferase expression (FIG. 4e) | fold induction at 25 µM |
| --- | --- | --- | --- |
| c1cnc2cc(CNc3cnc4[nH]ccc4c3N3CCNCC3)ccc2n1 [compound 114, 4-(piperazin-1-yl)-N-(quinoxalin-6-ylmethyl)-1H-pyrrolo[2,3-b]pyridin-5-amine] | 60.1 | – | – |
| Fc1cncc(NCc2ccc3nccnc3c2)c1N1CCCNCC1 [compound 092, 4-(1,4-diazepan-1-yl)-5-fluoro-N-(quinoxalin-6-ylmethyl)pyridin-3-amine] | 34.9 | – | – |
| Clc1cncc(NCc2ccc3nccnc3c2)c1N1CCNCC1 [compound 019, 5-Chloro-4-(piperazin-1-yl)-N-(quinoxalin-6-ylmethyl)pyridin-3-amine] | 60.2 | regulate expression in a dose-dependent fashion | 453 |
| Clc1cc2nccnc2cc1CNc1cnccc1O[C@@H]1CCNC1 [compound 108, (R)—N-((7-chloroquinoxalin-6-yl)methyl)-4-(pyrrolidin-3-yloxy)pyridin-3-amine] | 37.5 | – | – |
| O=C1CN(c2ccncc2NCc2ccc3nccnc3c2)CCN1 [compound 038, 4-(3-((quinoxalin-6-ylmethyl)amino)pyridin-4-yl)piperazin-2-one] | – | – | 2.9 |
| c1cc(N2CC3CNCC3C2)c(NCc2ccc3nccnc3c2)cn1 (centres unmarked) [compound 032, 4-(hexahydropyrrolo[3,4-c]pyrrol-2(1H)-yl)-N-(quinoxalin-6-ylmethyl)pyridin-3-amine] | – | – | 69.4 |
| C[C@H]1CN(c2ccncc2NCc2cc3nccnc3cc2F)CCN1 [compound 102, (S)—N-((7-fluoroquinoxalin-6-yl)methyl)-4-(3-methylpiperazin-1-yl)pyridin-3-amine] | 13.6 | – | – |
| Fc1cc2nccnc2cc1CNc1cncc(Cl)c1N1CCNCC1 [compound 052, 5-chloro-N-((7-fluoroquinoxalin-6-yl)methyl)-4-(piperazin-1-yl)pyridin-3-amine] | 18.9 | – | – |
| Clc1cc2nccnc2cc1CNc1cnccc1OC1CNC1 [compound 029, 4-(Azetidin-3-yloxy)-N-((7-chloroquinoxalin-6-yl)methyl)pyridin-3-amine] | 41.3 | – | – |
| Cc1cc(CNc2cnccc2O[C@@H]2CCNC2)cc2nccnc12 [compound 122, (R)—N-((8-methylquinoxalin-6-yl)methyl)-4-(pyrrolidin-3-yloxy)pyridin-3-amine] | 35.8 | – | – |
| c1cc(N2CCCNCC2)c(NCc2ccc3nccnc3c2)cn1 [compound 014, 4-(1,4-Diazepan-1-yl)-N-(quinoxalin-6-ylmethyl)pyridin-3-amine] | – | regulate expression in a dose-dependent fashion | 251 |
| Clc1cncc(NCc2ccc3nccnc3c2)c1OC1CNC1 [compound 027, 4-(Azetidin-3-yloxy)-5-chloro-N-(quinoxalin-6-ylmethyl)pyridin-3-amine] | 49.4 | – | – |
| Clc1cc(CNc2cnccc2OC2CNC2)cc2nccnc12 [compound 064, 4-(azetidin-3-yloxy)-N-((8-chloroquinoxalin-6-yl)methyl)pyridin-3-amine] | 15 | – | – |
| c1cc(NC2CCNCC2)c(NCc2ccc3nccnc3c2)cn1 [compound 034, N^4-(piperidin-4-yl)-N^3-(quinoxalin-6-ylmethyl)pyridine-3,4-diamine] | – | – | 53.2 |
| Brc1cncc(NCc2ccc3nccnc3c2)c1N1CCNCC1 [compound 074, 5-bromo-4-(piperazin-1-yl)-N-(quinoxalin-6-ylmethyl)pyridin-3-amine] | 48.6 | – | – |
| Fc1cncc(NCc2ccc3nccnc3c2F)c1N1CCNCC1 [compound 079, 5-fluoro-N-((5-fluoroquinoxalin-6-yl)methyl)-4-(piperazin-1-yl)pyridin-3-amine] | 4.4 | – | – |

| Compound | fold induction at 2 µM | regulation of luciferase expression (FIG. 4e) | fold induction at 25 µM |
| --- | --- | --- | --- |
| c1cc(NCc2ccc3nccnc3c2)c(N2CCNCC2)cn1 [compound 040, 3-(piperazin-1-yl)-N-(quinoxalin-6-ylmethyl)pyridin-4-amine] | – | – | 69 |
| c1ccc2c(N3CCNCC3)c(NCc3ccc4nccnc4c3)cnc2c1 [compound 115, 4-(piperazin-1-yl)-N-(quinoxalin-6-ylmethyl)quinolin-3-amine] | 79 | – | – |
| CC1CNCCN1c1ccncc1NCc1ccc2nccnc2c1 (centres unmarked) [compound 015, 4-(2-Methylpiperazin-1-yl)-N-(quinoxalin-6-ylmethyl)pyridin-3-amine] | – | regulate expression in a dose-dependent fashion | 329 |
| Fc1cncc(NCc2cc3nccnc3cc2Cl)c1N1CCCNCC1 [compound 096, N-((7-chloroquinoxalin-6-yl)methyl)-4-(1,4-diazepan-1-yl)-5-fluoropyridin-3-amine] | 16.2 | – | – |
| CN(C)CCOc1ccncc1NCc1ccc2nccnc2c1 [compound 047, 4-(2-(dimethylamino)ethoxy)-N-(quinoxalin-6-ylmethyl)pyridin-3-amine] | 2.7 | – | – |
| C[C@@H]1CNCCN1c1ccncc1NCc1cc2nccnc2cc1F [compound 100, (R)—N-((7-fluoroquinoxalin-6-yl)methyl)-4-(2-methylpiperazin-1-yl)pyridin-3-amine] | 3.5 | – | – |
| C[C@H]1CN(c2c(Cl)cncc2NCc2ccc3nccnc3c2)CCN1 [compound 025, (S)-5-Chloro-4-(3-methylpiperazin-1-yl)-N-(quinoxalin-6-ylmethyl)pyridin-3-amine] | 42.6 | – | – |
| Clc1cc2nccnc2cc1CNc1cnccc1N1CC2CNCC2C1 (centres unmarked) [compound 099, N-((7-chloroquinoxalin-6-yl)methyl)-4-(hexahydropyrrolo[3,4-c]pyrrol-2(1H)-yl)pyridin-3-amine] | 8.2 | – | – |
| Cc1cc(CNc2cnccc2N2CCNCC2)cc2nccnc12 [compound 068, N-((8-methylquinoxalin-6-yl)methyl)-4-(piperazin-1-yl)pyridin-3-amine] | 4.4 | – | – |
| C[C@H]1CN(c2ccncc2NCc2cc3nccnc3cc2Cl)CCN1 [compound 057, (S)—N-((7-chloroquinoxalin-6-yl)methyl)-4-(3-methylpiperazin-1-yl)pyridin-3-amine] | 22.3 | – | – |
| Clc1cc2nccnc2cc1CNc1cncc(Cl)c1N1CCNCC1 [compound 054, 5-chloro-N-((7-chloroquinoxalin-6-yl)methyl)-4-(piperazin-1-yl)pyridin-3-amine] | 10.6 | – | – |
| Brc1cncc(NCc2ccc3nccnc3c2)c1OC1CNC1 [compound 112, 4-(azetidin-3-yloxy)-5-bromo-N-(quinoxalin-6-ylmethyl)pyridin-3-amine] | 40.9 | – | – |
| c1cc(N2CC3CC2CN3)c(NCc2ccc3nccnc3c2)cn1 (centres unmarked) [compound 030, 4-(2,5-diazabicyclo[2.2.1]heptan-2-yl)-N-(quinoxalin-6-ylmethyl)pyridin-3-amine] | – | – | 82.9 |
| Clc1cc2nccnc2cc1CNc1cnccc1N1C[C@@H]2C[C@H]1CN2 [compound 097, 4-((1S,4S)-2,5-diazabicyclo[2.2.1]heptan-2-yl)-N-((7-chloroquinoxalin-6-yl)methyl)pyridin-3-amine] | 2.6 | – | – |
| COc1cc(CNc2cnccc2N2CCNCC2)cc2nccnc12 [compound 071, N-((8-methoxyquinoxalin-6-yl)methyl)-4-(piperazin-1-yl)pyridin-3-amine] | 6.1 | – | – |
